From patent publication US20240246954A1, “COMPOSITIONS AND METHODS FOR INHIBITING KRAS” (TheRas, Inc., priority 2021, published 2024)

Assays:
[1] = test system: pERK in GP2d cells (KRAS G12D); experiment: Cell-based pERK HTRF assay; conditions: GP2d, 1 h, 60 min incubation
Procedure: Biological Example 3. Cell-Based pERK HTRF Assay
pERK assay (Perkin Elmer) was used to determine the effectiveness of compounds in disrupting KRAS G12D protein/effector signaling in cells.
On Day 1, cells (GP2d) were seeded into 96-well plates at 3×10^4 cells/well in 80 μl complete growth media (DMEM, 10% FBS).
On Day 2, cells were treated with compounds at 0.25% DMSO. The source plate was created with compounds diluted in media at 5-fold the final assay concentration. The compounds were run in a 9-point concentration curve starting at 1 μM, with a half-log dilution between concentrations. 20 μL was transferred onto the cell plates (final volume in wells was 100 μL). Plates were harvested after 60 min incubation by aspirating media and adding kit-supplied 1× supplemented lysis buffer to all wells (50 μl per well). Plates were then placed on a plate shaker and incubated at 850 rpm for an additional 30 min.
Antibody mixture solution is prepared by diluting aliquoted d2 and Eu Cryptate antibodies 1:20 in kit supplied detection buffer, mix the diluted antibodies solutions (1:1 v:v). Four μL of this solution is then added to a 384-well detection plate (Perkin Elmer; 6008230).
Samples were homogenized by pipetting up and down and then transferred (16 μL of cell lysates) from the 96-well cell culture plate to two wells of the HTRF 384-well detection plate containing the antibody solution. Plates were centrifuged (524 g for 1 min) and allowed to incubate between 4 and 24 h at room temperature. Maximum signal is reached after 4 h incubation time and remains stable over a period of 24 hours. Therefore, readings can be made between 4 and 24 h of incubation. Plates were centrifuged again (524 g for 1 min), then analyzed on the EnVision plate reader using the following settings: Excitation 320 nm, Bandwidth 75 nm; Emission 615 nm, Bandwidth 85 nm; Gain 100%; Flashes 100; Lag 60 μs.

[2] = biological target: T1, Avi-KRAS G12D (1-169) GppNHp/RAF1 RBD-3×FLAG (52-151) (Homo sapiens, UniProt P01116, G12D); experiment: HTRF Raf1-KRAS G12D-GppNHp disruption assay; assay type: biochemical; conditions: 1 h incubation
T1 construct: Avi-KRAS G12D (1-169) GppNHp
Outline: (§1)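 Compounds titrated from 100 μM in a 10-point series, incubated with protein mix 1 h at room temperature, then HTRF reagents a further 1 h. Time-resolved fluorescence read (excitation 320 nm, emission 615 nm); activity expressed as percentage of DMSO control.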

[3] = biological target: T2, Avi-KRAS G12D/Q25A (1-169) GppNHp/3×FLAG-PI3KCA (157-299) (Homo sapiens, UniProt P01116, G12D/Q25A); experiment: HTRF PI3KCA-KRAS G12D/Q25A-GppNHp disruption assay; assay type: biochemical; conditions: 1 h incubation
T2 construct: Avi-KRAS G12D/Q25A (1-169) GppNHp
Outline: as §1

T2 sequence (P01116 1-169 isoform P01116-2 G12D/Q25A limits assumed): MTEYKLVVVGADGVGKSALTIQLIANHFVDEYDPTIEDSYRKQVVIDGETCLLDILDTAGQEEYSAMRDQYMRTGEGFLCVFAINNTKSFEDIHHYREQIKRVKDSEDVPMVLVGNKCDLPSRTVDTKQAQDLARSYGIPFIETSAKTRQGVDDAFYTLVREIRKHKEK
T1 sequence (P01116 1-169 isoform P01116-2 G12D limits assumed): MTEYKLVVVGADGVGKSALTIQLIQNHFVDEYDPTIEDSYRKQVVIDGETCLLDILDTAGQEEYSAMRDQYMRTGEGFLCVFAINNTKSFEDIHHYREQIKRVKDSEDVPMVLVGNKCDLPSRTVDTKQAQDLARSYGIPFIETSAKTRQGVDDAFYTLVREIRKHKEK

IC50 [1] [nM] | IC50 [2] [nM] | IC50 [3] [nM] | Structure (SMILES)
100 to 1000 | 100 to 1000 | 100 to 1000 | CN(c1nc(OCC23CCCN2CCC3)nc2c(F)c(-c3ccc(F)c4sc(N)nc34)c(C(F)(F)F)cc12)C12CC(N)(C1)C2 [Compound 274]
100 to 1000 | 100 to 1000 | 100 to 1000 | C[C@@H]1C[C@@H](N(C)c2nc(OC[C@@]34CCCN3C[C@H](F)C4)nc3c(F)c(-c4ccc(F)c5sc(N)nc45)c(C(F)(F)F)cc23)CN1 [Compound 283]
100 to 1000 | 100 to 1000 | 100 to 1000 | CN(c1nc(OC[C@@]23CCCN2C[C@H](F)C3)nc2c(F)c(-c3ccc(F)c4sc(N)nc34)c(C(F)(F)F)cc12)[C@@H]1CNCC1(C)C [Compound 293]
≤ 100 | 100 to 1000 | 1000 to 10000 | CN(c1nc(OCC2(CN3CCOCC3)CC2)nc2c(F)c(-c3ccc(F)c4sc(N)nc34)c(C(F)(F)F)cc12)[C@@H]1CCNC1 [Compound 296]
100 to 1000 | 100 to 1000 | 1000 to 10000 | CN(c1nc(OCC2(CN3CC[C@@H](F)C3)CC2)nc2c(F)c(-c3ccc(F)c4sc(N)nc34)c(C(F)(F)F)cc12)[C@@H]1CCNC1 [Compound 297]
> 1000 | 1000 to 10000 | 1000 to 10000 | CN(c1nc(OCC23CCCN2CCC3)nc2c(F)c(-c3ccc(F)c4sc(N)nc34)c(C(F)(F)F)cc12)[C@H]1CC[C@H](N)CC1 [Compound 304]
100 to 1000 | 1000 to 10000 | 1000 to 10000 | C[C@H]1CNC[C@@H]1N(C)c1nc(OC[C@@]23CCCN2C[C@H](F)C3)nc2c(F)c(-c3ccc(F)c4sc(N)nc34)c(C(F)(F)F)cc12 [Compound 309]
≤ 100 | 100 to 1000 | 10000 to 30000 | C[C@H]1C[C@@H](N(C)c2nc(OC[C@@]34CCCN3C[C@H](F)C4)nc3c(F)c(-c4ccc(F)c5sc(N)nc45)c(C(F)(F)F)cc23)CN1 [Compound 311]
100 to 1000 | 1000 to 10000 | 10000 to 30000 | CN(c1nc(OC[C@@]23CCCN2C[C@H](F)C3)nc2c(F)c(-c3ccc(F)c4sc(N)nc34)c(C(F)(F)F)cc12)[C@H]1CNCC12CC2 [Compound 312]
100 to 1000 | 100 to 1000 | 1000 to 10000 | CN(c1nc(OC[C@@]23CCCN2C[C@H](F)C3)nc2c(Cl)c(-c3ccc(F)c4sc(N)nc34)c(C(F)(F)F)cc12)[C@@H]1CCNC1 [Compound 314]
> 1000 | 1000 to 10000 | 1000 to 10000 | CN(c1nc(OC[C@@]23CCCN2C[C@H](F)C3)nc2c(F)c(-c3ccc(F)c4sc(N)nc34)c(C(F)(F)F)cc12)[C@H]1CNCC1(C)C [Compound 325]
> 1000 | 1000 to 10000 | 1000 to 10000 | Nc1nc2c(-c3c(C(F)(F)F)cc4c(N[C@H]5C[C@H]6CNC[C@H]6C5)nc(OCC56CCCN5CCC6)nc4c3F)ccc(F)c2s1 [Compound 326]
> 1000 | 100 to 1000 | 1000 to 10000 | Nc1nc2c(-c3c(C(F)(F)F)cc4c(N5CCC6(CCNC6)C5)nc(OCC56CCCN5CCC6)nc4c3F)ccc(F)c2s1 (stereo not drawn) [Compound 327]
> 1000 | 1000 to 10000 | 1000 to 10000 | Nc1nc2c(-c3c(C(F)(F)F)cc4c(N[C@H]5CCC[C@H](N)C5)nc(OCC56CCCN5CCC6)nc4c3F)ccc(F)c2s1 [Compound 328]
> 1000 | 10000 to 30000 | 10000 to 30000 | Nc1nc2c(-c3c(C(F)(F)F)cc4c(N[C@H]5CCC[C@@H](N)C5)nc(OCC56CCCN5CCC6)nc4c3F)ccc(F)c2s1 [Compound 329]
100 to 1000 | 100 to 1000 | 1000 to 10000 | Nc1nc2c(-c3c(C(F)(F)F)cc4c(N5CCC[C@H]6NCC[C@H]65)nc(OCC56CCCN5CCC6)nc4c3F)ccc(F)c2s1 [Compound 332]
> 1000 | 1000 to 10000 | 1000 to 10000 | Nc1nc2c(-c3c(C(F)(F)F)cc4c(N5CC[C@@H]6NCC[C@@H]65)nc(OCC56CCCN5CCC6)nc4c3F)ccc(F)c2s1 [Compound 333]
> 1000 | 1000 to 10000 | 1000 to 10000 | Nc1nc2c(-c3c(C(F)(F)F)cc4c(N[C@@H]5CCC6(CNC6)C5)nc(OCC56CCCN5CCC6)nc4c3F)ccc(F)c2s1 [Compound 334]

Structure (SMILES) | IC50 [1] [nM] | IC50 [2] [nM] | IC50 [3] [nM]
Nc1nc2c(-c3c(C(F)(F)F)cc4c(NC5CC6CC[C@H](C5)N6)nc(OCC56CCCN5CCC6)nc4c3F)ccc(F)c2s1 (stereo partly drawn) [Compound 264] | > 1000 | 100 to 1000 | 100 to 1000
CN1C[C@H](F)C[C@H]1COc1nc(N2CC3CCC(C2)N3)c2cc(C(F)(F)F)c(-c3ccc(F)c4sc(N)nc34)c(F)c2n1 [Compound 275] | ≤ 100 | 1000 to 10000 | 1000 to 10000
CO[C@H]1CN2CCC[C@]2(COc2nc(N3CC4CCC(C3)N4)c3cc(C(F)(F)F)c(-c4ccc(F)c5sc(N)nc45)c(F)c3n2)C1 [Compound 285] | ≤ 100 | 100 to 1000 | 100 to 1000
Nc1nc2c(-c3c(C(F)(F)F)cc4c(N5CC6CCCC(C5)N6)nc(OC[C@@]56CCCN5C[C@H](F)C6)nc4c3F)ccc(F)c2s1 [Compound 299] | ≤ 100 | 100 to 1000 | 100 to 1000
Nc1nc2c(-c3c(C(F)(F)F)cc4c(N5CC6COCC(C5)N6)nc(OC[C@@]56CCCN5C[C@H](F)C6)nc4c3F)ccc(F)c2s1 [Compound 300] | 100 to 1000 | 100 to 1000 | 100 to 1000
Nc1nc2c(-c3cc4nc(OC[C@@]56CCCN5C[C@H](F)C6)nc(N5CC6CCC(C5)N6)c4cc3C(F)(F)F)ccc(F)c2s1 [Compound 313] | ≤ 100 | 100 to 1000 | 1000 to 10000
CCN1[C@@H]2CC[C@H]1CN(c1nc(OC[C@@]34CCCN3C[C@H](F)C4)nc3c(F)c(-c4ccc(F)c5sc(N)nc45)c(C(F)(F)F)cc13)C2 [Compound 315, 4-(4-((1R,5S)-8-ethyl-3,8-diazabicyclo[3.2.1]octan-3-yl)-8-fluoro-2-(((2R,7aS)-2-fluorotetrahydro-1H-pyrrolizin-7a(5H)-yl)methoxy)-6-(trifluoromethyl)quinazolin-7-yl)-7-fluorobenzo[d]thiazol-2-amine] | 100 to 1000 | 1000 to 10000 | 10000 to 30000
CC(C)N1C2CCC1CN(c1nc(OC[C@@]34CCCN3C[C@H](F)C4)nc3c(F)c(-c4ccc(F)c5sc(N)nc45)c(C(F)(F)F)cc13)C2 [Compound 316] | 100 to 1000 | 1000 to 10000 | 1000 to 10000
N#Cc1csc2c(F)ccc(-c3cc4nc(OC[C@@]56CCCN5C[C@H](F)C6)nc(N5CC6CCC(C5)N6)c4cc3C(F)(F)F)c12 [Compound 318] | 100 to 1000 | 1000 to 10000 | 10000 to 30000
Nc1nc2c(-c3cc4nc(OC[C@@]56CCCN5C[C@H](F)C6)nc(N5CC6CCC(C5)N6)c4cc3C(F)(F)F)c(F)cc(F)c2s1 [Compound 319] | ≤ 100 | 100 to 1000 | 100 to 1000
N#Cc1c(N)sc2c(F)ccc(-c3c(OC(F)(F)F)cc4c(N5CC6CCC(C5)N6)nc(OC[C@@]56CCCN5C[C@H](F)C6)nc4c3F)c12 [Compound 320] | ≤ 100 | 100 to 1000 | 100 to 1000
N#Cc1c(N)sc2c(F)ccc(-c3cc4nc(OC[C@@]56CCCN5C[C@H](F)C6)nc(N5CC6CCC(C5)N6)c4cc3C(F)(F)F)c12 [Compound 323, 4-(4-(3,8-diazabicyclo[3.2.1]octan-3-yl)-2-(((2R,7aS)-2-fluorotetrahydro-1H-pyrrolizin-7a(5H)-yl)methoxy)-6-(trifluoromethyl)quinazolin-7-yl)-2-amino-7-fluorobenzo[b]thiophene-3-carbonitrile] | ≤ 100 | ≤ 100 | 100 to 1000
Nc1nc2c(-c3c(C(F)(F)F)cc4c(N5CC6CCC(C5)N6CC5CC5)nc(OC[C@@]56CCCN5C[C@H](F)C6)nc4c3F)ccc(F)c2s1 [Compound 324] | 100 to 1000 | 1000 to 10000 | 1000 to 10000
N#Cc1c(N)sc2c(F)ccc(-c3c(C(F)(F)F)cc4c(N5CC6CCC(C5)N6)nc(OCC5(CN6CC[C@@H](F)C6)CC5)nc4c3F)c12 [Compound 330] | ≤ 100 | ≤ 100 | 100 to 1000
Fc1c(-c2cc(C(F)F)cc3ccccc23)c(C(F)(F)F)cc2c(N3CC4CCC(C3)N4)nc(OCC34CCCN3CCC4)nc12 [Compound 331] | > 1000 | 10000 to 30000 | 10000 to 30000
